Assay results from US7067500B2, “Betaines as adjuvants to susceptibility testing and antimicrobial therapy” (priority 1997, dated 2006).
“Also recorded” adds a separate entry of the source. Counter-ions that a name gives are not always drawn.

Test system: M. tuberculosis isolates (Table 8)
Assay: MTB isolates vs. antibiotic screen in the presence and absence of CB-18
Conditions: CB-18 17 μg/ml

Structure (SMILES): CCCCCCCCCCCCCCCCCC[N+](C)(C)CCCC(=O)[O-] [CB-18, N-(3-carboxypropyl)-N,N-dimethyl-1-octadecanaminium, inner salt]
- CB-18 induced sensitivity to antibiotics tested (061-TBR (INH resistant)): exacerbated in the presence of CB-18; also recorded: Minor, if any, CB-18 induced sensitivity to
- CB-18 induced sensitivity to antibiotics tested (896-BAL (multi drug resistant: INH, RIF & PZA)): Minimal, if any, CB-18 induced sensitivity to
